Measurements reported in ChEMBL document CHEMBL5625183, “Discovery of a novel dual-target inhibitor of CDK12 and PARP1 that induces synthetic lethality for treatment of triple-negative breast cancer” (Eur J Med Chem, 2023).

Legend:
[1] = molecular target: Cyclin-dependent kinase 12 (Homo sapiens, UniProt Q9NYV4); test: Inhibition of CDK12 (unknown origin) at 1 uM in presence of ATP by kinase-glo plus luminescent assay relative to control
[2] = test system: MDA-MB-436; test: Antiproliferative activity against human MDA-MB-436 cells assessed as inhibition of cell growth incubated for 24 hrs by MTT assay; type: functional, cell-based; conditions: Homo sapiens, MDA-MB-436, 24 h
[3] = test system: MDA-MB-468; test: Antiproliferative activity against human MDA-MB-468 cells assessed as inhibition of cell growth incubated for 24 hrs by MTT assay; type: functional, cell-based; conditions: MDA-MB-468, 24 h
[4] = test system: MDA-MB-231; test: Antiproliferative activity against human MDA-MB-231 cells assessed as inhibition of cell growth incubated for 24 hrs by MTT assay; type: functional, cell-based; conditions: MDA-MB-231, 24 h

Chain of Cyclin-dependent kinase 12 (Q9NYV4 whole entry, looked up): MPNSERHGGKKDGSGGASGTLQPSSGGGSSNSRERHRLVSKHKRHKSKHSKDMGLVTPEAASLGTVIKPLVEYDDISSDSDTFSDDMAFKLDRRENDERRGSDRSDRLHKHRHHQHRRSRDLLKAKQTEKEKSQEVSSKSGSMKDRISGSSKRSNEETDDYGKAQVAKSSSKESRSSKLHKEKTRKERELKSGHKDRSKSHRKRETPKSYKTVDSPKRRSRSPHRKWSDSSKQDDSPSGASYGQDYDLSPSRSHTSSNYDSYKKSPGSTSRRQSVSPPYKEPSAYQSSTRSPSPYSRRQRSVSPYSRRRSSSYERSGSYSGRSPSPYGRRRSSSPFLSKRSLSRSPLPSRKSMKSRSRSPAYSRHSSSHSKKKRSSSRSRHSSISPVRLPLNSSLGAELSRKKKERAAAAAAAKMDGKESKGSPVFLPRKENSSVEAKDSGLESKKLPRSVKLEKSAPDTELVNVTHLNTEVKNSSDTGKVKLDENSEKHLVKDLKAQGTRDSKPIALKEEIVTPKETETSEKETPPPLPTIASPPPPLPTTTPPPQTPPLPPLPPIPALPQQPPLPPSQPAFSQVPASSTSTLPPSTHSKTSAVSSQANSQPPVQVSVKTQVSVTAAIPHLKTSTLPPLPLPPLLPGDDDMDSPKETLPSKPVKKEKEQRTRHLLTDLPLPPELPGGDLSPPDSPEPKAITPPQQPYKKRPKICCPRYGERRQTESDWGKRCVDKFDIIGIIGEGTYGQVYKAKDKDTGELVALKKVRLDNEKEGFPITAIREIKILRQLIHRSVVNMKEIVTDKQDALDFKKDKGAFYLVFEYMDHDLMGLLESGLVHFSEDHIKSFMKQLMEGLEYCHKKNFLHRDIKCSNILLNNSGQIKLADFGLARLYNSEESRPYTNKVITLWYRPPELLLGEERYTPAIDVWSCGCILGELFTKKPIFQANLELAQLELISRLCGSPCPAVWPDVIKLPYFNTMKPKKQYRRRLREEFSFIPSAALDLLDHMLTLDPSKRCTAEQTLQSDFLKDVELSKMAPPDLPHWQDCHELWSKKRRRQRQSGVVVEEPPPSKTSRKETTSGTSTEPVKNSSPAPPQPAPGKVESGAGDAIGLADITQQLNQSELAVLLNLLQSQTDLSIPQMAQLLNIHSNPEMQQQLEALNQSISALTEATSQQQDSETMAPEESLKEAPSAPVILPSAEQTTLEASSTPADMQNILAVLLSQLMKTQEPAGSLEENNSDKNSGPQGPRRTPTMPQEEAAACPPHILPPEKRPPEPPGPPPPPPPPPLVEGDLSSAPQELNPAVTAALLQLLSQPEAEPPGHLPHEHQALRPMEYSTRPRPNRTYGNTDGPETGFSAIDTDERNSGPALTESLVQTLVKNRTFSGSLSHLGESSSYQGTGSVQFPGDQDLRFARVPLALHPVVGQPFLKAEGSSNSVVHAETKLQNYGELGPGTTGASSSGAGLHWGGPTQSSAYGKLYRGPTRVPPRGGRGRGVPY

Row | SMILES | inhibition [1] | IC50 [2] | IC50 [3] | IC50 [4]
1 | NC(=O)c1cccc2[nH]c(NC(=O)c3ccc(C(=O)N4CCN(c5ncc(F)cn5)CC4)cc3)nc12 | 19.8% | > 30 µM | > 30 µM | > 30 µM
2 | NC(=O)c1cccc2[nH]c(NC(=O)c3cccc(C(=O)N4CCN(c5ncc(Br)cn5)CC4)c3)nc12 | 46.2% | 22.1 µM | 23.7 µM | 24.5 µM
3 | NC(=O)c1cccc2[nH]c(NC(=O)c3ccc(C(=O)N4CCC(Nc5ncc(F)cn5)CC4)cc3)nc12 | 38.8% | 24.4 µM | 26.4 µM | 28.7 µM
4 | NC(=O)c1cccc2[nH]c(NC(=O)c3ccc(C(=O)N4CCC(Nc5ncc(I)cn5)CC4)cc3)nc12 | 61.7% | 16.5 µM | 18.5 µM | 19.3 µM
5 | NC(=O)c1cccc2[nH]c(NC(=O)c3cccc(C(=O)N4CCN(c5ncc(F)cn5)CC4)c3)nc12 | 31.6% | > 30 µM | > 30 µM | > 30 µM
6 | NC(=O)c1cccc2[nH]c(NC(=O)c3ccc(C(=O)N4CCC(Nc5ccc(Br)cn5)CC4)cc3)nc12 | 25.9% | > 30 µM | > 30 µM | > 30 µM
7 | COc1cnc(NC2CCN(C(=O)c3cccc(C(=O)Nc4nc5c(C(N)=O)cccc5[nH]4)c3)CC2)nc1 | 36.4% | 22.7 µM | 27.9 µM | 25.2 µM
8 | NC(=O)c1cccc2[nH]c(NC(=O)c3ccc(CN4CCC(Nc5ncc(I)cn5)CC4)cc3)nc12 | 40.8% | 28.9 µM | 27.7 µM | > 30 µM
9 | NC(=O)c1cccc2[nH]c(NC(=O)c3ccc(CN4CCC(Nc5ncc(Br)cn5)CC4)cc3)nc12 | 45.4% | 24.2 µM | 25.7 µM | 26.5 µM
10 | NC(=O)c1cccc2[nH]c(NC(=O)c3cccc(C(=O)N4CCN(c5ncc(C(F)(F)F)cn5)CC4)c3)nc12 | 52.1% | 17.8 µM | 19.3 µM | 18.9 µM
11 | NC(=O)c1cccc2[nH]c(NC(=O)c3ccc(C(=O)N4CCC(Nc5ncccn5)CC4)cc3)nc12 | 32.4% | 25 µM | 28.7 µM | 30 µM
12 | NC(=O)c1cccc2[nH]c(NC(=O)c3ccc(C(=O)N4CCC(Nc5ncc(C(F)(F)F)cn5)CC4)cc3)nc12 | 54.6% | 23.2 µM | 25.2 µM | 22.8 µM
13 | NC(=O)c1cccc2[nH]c(NC(=O)c3ccc(C(=O)N4CCC(Nc5ccc(C(F)(F)F)cn5)CC4)cc3)nc12 | 26.7% | > 30 µM | > 30 µM | > 30 µM
14 | NC(=O)c1cccc2[nH]c(NC(=O)c3ccc(C(=O)N4CCN(c5ncc(C(F)(F)F)cn5)CC4)cc3)nc12 | 43% | 23.9 µM | 24.2 µM | 24.1 µM
15 | NC(=O)c1cccc2[nH]c(NC(=O)c3ccc(S(=O)(=O)N4CCC(Nc5ncc(Br)cn5)CC4)cc3)nc12 | 77.6% | > 30 µM | 24.6 µM | 26.6 µM
16 | NC(=O)c1cccc2[nH]c(NC(=O)c3ccc(C(=O)N4CCC(Nc5ncc([N+](=O)[O-])cn5)CC4)cc3)nc12 | 24.1% | > 30 µM | > 30 µM | > 30 µM
17 | NC(=O)c1cccc2[nH]c(NC(=O)c3cccc(C(=O)N4CCC(Nc5ccc(Br)cn5)CC4)c3)nc12 | 25.6% | > 30 µM | > 30 µM | > 30 µM
18 | NC(=O)c1cccc2[nH]c(NC(=O)c3ccc(C(=O)N4CCC(Nc5ncc(Br)cn5)CC4)cc3)nc12 | 55.4% | 17.2 µM | 21.3 µM | 19.5 µM
19 | NC(=O)c1cccc2[nH]c(NC(=O)c3cccc(C(=O)N4CCC(Nc5ncc([N+](=O)[O-])cn5)CC4)c3)nc12 | 5.4% | > 30 µM | > 30 µM | > 30 µM

Row | SMILES | inhibition [1] | IC50 [2] | IC50 [3] | IC50 [4]
20 | CCc1cnc(NC2CCN(C(=O)c3cccc(C(=O)Nc4nc5c(C(N)=O)cccc5[nH]4)c3)CC2)nc1 | 48.7% | 21.3 µM | 23.1 µM | 24.2 µM
21 | NC(=O)c1cccc2[nH]c(NC(=O)c3ccc(CN4CCC(Nc5ncc(C(F)(F)F)cn5)CC4)cc3)nc12 | 34% | > 30 µM | 27.3 µM | 26.9 µM
22 | NC(=O)c1cccc2[nH]c(NC(=O)c3ccc(C(=O)N4CCN(c5ncc(I)cn5)CC4)cc3)nc12 | 45.2% | 22.9 µM | 26.3 µM | 25.8 µM
23 | NC(=O)c1cccc2[nH]c(NC(=O)c3ccc(C(=O)N4CCC(Nc5nccc(C(F)(F)F)n5)CC4)cc3)nc12 | 16.8% | > 30 µM | > 30 µM | > 30 µM
24 | NC(=O)c1cccc2[nH]c(NC(=O)c3cccc(C(=O)N4CCN(c5ccc(C(F)(F)F)cn5)CC4)c3)nc12 | 46.4% | 24.6 µM | 27.5 µM | 25.4 µM
25 | NC(=O)c1cccc2[nH]c(NC(=O)c3ccc(CN4CCC(Nc5ncc(Cl)cn5)CC4)cc3)nc12 | 43.1% | 25.8 µM | > 30 µM | 27 µM
26 | CCc1cnc(NC2CCN(C(=O)c3ccc(C(=O)Nc4nc5c(C(N)=O)cccc5[nH]4)cc3)CC2)nc1 | 44.1% | 22.3 µM | 24.3 µM | 24.5 µM
27 | NC(=O)c1cccc2[nH]c(NC(=O)c3cccc(C(=O)N4CCC(Nc5ncccn5)CC4)c3)nc12 | 25% | > 30 µM | > 30 µM | > 30 µM
28 | NC(=O)c1cccc2[nH]c(NC(=O)c3cccc(C(=O)N4CCC(Nc5ccc(C(F)(F)F)cn5)CC4)c3)nc12 | 19.8% | > 30 µM | > 30 µM | > 30 µM
29 | NC(=O)c1cccc2[nH]c(NC(=O)c3ccc(C(=O)N4CCN(c5ncc(Br)cn5)CC4)cc3)nc12 | 41.6% | 23.6 µM | 25.1 µM | 24.2 µM
30 | NC(=O)c1cccc2[nH]c(NC(=O)c3cccc(C(=O)N4CCC(Nc5ccc(I)cn5)CC4)c3)nc12 | 30.1% | > 30 µM | > 30 µM | > 30 µM
31 | Cc1cnc(NC2CCN(C(=O)c3ccc(C(=O)Nc4nc5c(C(N)=O)cccc5[nH]4)cc3)CC2)nc1 | 35.6% | 23 µM | 27.6 µM | 25.5 µM
32 | NC(=O)c1cccc2[nH]c(NC(=O)c3ccc(C(=O)N4CCN(c5ncc(Cl)cn5)CC4)cc3)nc12 | 37.4% | 27.6 µM | 27.3 µM | 28.2 µM
33 | NC(=O)c1cccc2[nH]c(NC(=O)c3cccc(C(=O)N4CCN(c5ncc(Cl)cn5)CC4)c3)nc12 | 44.1% | > 30 µM | 24.1 µM | 25.4 µM
34 | N#Cc1cnc(NC2CCN(C(=O)c3cccc(C(=O)Nc4nc5c(C(N)=O)cccc5[nH]4)c3)CC2)nc1 | 21.7% | > 30 µM | > 30 µM | > 30 µM
35 | N#Cc1cnc(N2CCN(C(=O)c3ccc(C(=O)Nc4nc5c(C(N)=O)cccc5[nH]4)cc3)CC2)nc1 | 28.5% | > 30 µM | > 30 µM | > 30 µM
36 | COc1cnc(NC2CCN(C(=O)c3ccc(C(=O)Nc4nc5c(C(N)=O)cccc5[nH]4)cc3)CC2)nc1 | 31.5% | 25.6 µM | 28.9 µM | 27.4 µM
37 | NC(=O)c1cccc2[nH]c(NC(=O)c3cccc(C(=O)N4CCN(c5ncc(I)cn5)CC4)c3)nc12 | 49.6% | 20.9 µM | 21.8 µM | 20.1 µM
38 | N#Cc1ccc(NC2CCN(C(=O)c3ccc(C(=O)Nc4nc5c(C(N)=O)cccc5[nH]4)cc3)CC2)nc1 | 13.3% | > 30 µM | > 30 µM | > 30 µM
